Patent US7498300B2, “CRFR1 selective ligands” (The Salk Institute for Biological Studies, priority 2001, dated 2009)

target: T1, human CRFR2 (Homo sapiens, UniProt Q13324); test: Competitive binding assay, CHO cells stably expressing human CRFR2, displacement of [125I-Tyr0]Ucn; conditions: not given
T1 construct: expressed in transfected cells
T1 sequence (Q13324 1-411): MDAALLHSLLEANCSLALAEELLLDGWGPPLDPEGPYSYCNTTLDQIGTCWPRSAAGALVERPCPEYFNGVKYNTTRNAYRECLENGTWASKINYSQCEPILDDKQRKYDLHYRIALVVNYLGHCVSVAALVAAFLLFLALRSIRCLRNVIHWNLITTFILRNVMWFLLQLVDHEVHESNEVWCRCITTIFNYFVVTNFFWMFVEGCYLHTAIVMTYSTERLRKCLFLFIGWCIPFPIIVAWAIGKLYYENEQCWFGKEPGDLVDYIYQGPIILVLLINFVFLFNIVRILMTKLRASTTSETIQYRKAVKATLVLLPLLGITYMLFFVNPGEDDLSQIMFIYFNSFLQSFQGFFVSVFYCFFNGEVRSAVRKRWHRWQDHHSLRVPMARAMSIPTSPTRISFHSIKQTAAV

Substance | binding to CRFR2 (in words)
(cyclo 31-34)[Ac-Pro^4, CML^19, Nle^21,38, Glu^31, Lys^34]-r/hCRF(4-41) [Example 5 B] | only very weakly
(cyclo 31-34)[Ac-Pro^4, D-Phe^12, CML^14,27, Nle^21,38, Glu^31, Lys^34]-r/hCRF(4-41) [Example 6 A] | only very weakly
(cyclo 31-34)[Ac-Pro^4, D-Phe^12, CML^14, Nle^21,38, Glu^31, Lys^34]-r/hCRF(4-41) [Example 5 A] | only very weakly
(cyclo 31-34)[Ac-Pro^4, D-Phe^12, CML^15, Nle^21,38, Glu^31, Lys^34]-r/hCRF(4-41) [Example 5] | only very weakly
(cyclo 31-34)[Ac-Pro^4, D-Phe^12, CML^17, Nle^21,38, Glu^31, Lys^34]-r/hCRF(4-41) [Example 5 E] | only very weakly
(cyclo 31-34)[Ac-Pro^4, D-Phe^12, CML^18,27, Nle^21,38, Glu^31, Lys^34]-r/hCRF(4-41) [Example 6 B] | only very weakly
(cyclo 31-34)[Ac-Pro^4, D-Phe^12, Nle^14,18,24, Glu^31, Lys^34]-flounder urotensin(4-41) [Example 3 G] | only very weakly
(cyclo 31-34)[Ac-Pro^4, D-Phe^12, Nle^14,18,24, Glu^31, Lys^34]-maggy urotensin(4-41) [Example 3 E] | only very weakly
(cyclo 31-34)[Ac-Pro^4, D-Phe^12, Nle^18,21, Glu^31, Lys^34]-AHC(4-41) [Example 3 A] | only very weakly
(cyclo 31-34)[Ac-Pro^4, D-Phe^12, Nle^18,21, Glu^31, Lys^34]-carp urotensin(4-41) [Example 3 F] | only very weakly

test system: not listed separately; test: In vivo lowering of blood pressure on peripheral administration; conditions: administered peripherally
Method: In vivo testing is carried out using the general procedure set forth in C.

Substance | lowering of blood pressure
(cyclo 31-34)[Ac-Pro^4, CML^19, Nle^21,38, Glu^31, Lys^34]-r/hCRF(4-41) [Example 5 B] | very significant lowering of blood pressure
(cyclo 31-34)[Ac-Pro^4, D-Phe^12, CML^14,27, Nle^21,38, Glu^31, Lys^34]-r/hCRF(4-41) [Example 6 A] | very significant lowering of blood pressure
(cyclo 31-34)[Ac-Pro^4, D-Phe^12, CML^14, Nle^21,38, Glu^31, Lys^34]-r/hCRF(4-41) [Example 5 A] | very significant lowering of blood pressure
(cyclo 31-34)[Ac-Pro^4, D-Phe^12, CML^15, Nle^21,38, Glu^31, Lys^34]-r/hCRF(4-41) [Example 5] | very significant lowering of blood pressure
(cyclo 31-34)[Ac-Pro^4, D-Phe^12, CML^17, Nle^21,38, Glu^31, Lys^34]-r/hCRF(4-41) [Example 5 E] | very significant lowering of blood pressure
(cyclo 31-34)[Ac-Pro^4, D-Phe^12, CML^18,27, Nle^21,38, Glu^31, Lys^34]-r/hCRF(4-41) [Example 6 B] | very significant lowering of blood pressure
(cyclo 31-34)[Ac-Pro^4, D-Phe^12, Nle^14,18,24, Glu^31, Lys^34]-flounder urotensin(4-41) [Example 3 G] | very significant lowering of blood pressure
(cyclo 31-34)[Ac-Pro^4, D-Phe^12, Nle^14,18,24, Glu^31, Lys^34]-maggy urotensin(4-41) [Example 3 E] | very significant lowering of blood pressure
(cyclo 31-34)[Ac-Pro^4, D-Phe^12, Nle^18,21, Glu^31, Lys^34]-AHC(4-41) [Example 3 A] | very significant lowering of blood pressure
(cyclo 31-34)[Ac-Pro^4, D-Phe^12, Nle^18,21, Glu^31, Lys^34]-carp urotensin(4-41) [Example 3 F] | very significant lowering of blood pressure

test system: cultured rat pituitary cells; test: In vitro stimulation of ACTH and β-endorphin secretion by cultured rat pituitary cells; format: cell-based; conditions: not given

Substance | stimulation of the secretion of ACTH and β-END-LI
(cyclo 31-34)[Ac-Pro^4, CML^19, Nle^21,38, Glu^31, Lys^34]-r/hCRF(4-41) [Example 5 B] | stimulates
(cyclo 31-34)[Ac-Pro^4, D-Phe^12, CML^14,27, Nle^21,38, Glu^31, Lys^34]-r/hCRF(4-41) [Example 6 A] | stimulates
(cyclo 31-34)[Ac-Pro^4, D-Phe^12, CML^14, Nle^21,38, Glu^31, Lys^34]-r/hCRF(4-41) [Example 5 A] | stimulates
(cyclo 31-34)[Ac-Pro^4, D-Phe^12, CML^15, Nle^21,38, Glu^31, Lys^34]-r/hCRF(4-41) [Example 5] | stimulates
(cyclo 31-34)[Ac-Pro^4, D-Phe^12, CML^17, Nle^21,38, Glu^31, Lys^34]-r/hCRF(4-41) [Example 5 E] | stimulates
(cyclo 31-34)[Ac-Pro^4, D-Phe^12, CML^18,27, Nle^21,38, Glu^31, Lys^34]-r/hCRF(4-41) [Example 6 B] | stimulates
(cyclo 31-34)[Ac-Pro^4, D-Phe^12, Nle^14,18,24, Glu^31, Lys^34]-flounder urotensin(4-41) [Example 3 G] | stimulates
(cyclo 31-34)[Ac-Pro^4, D-Phe^12, Nle^14,18,24, Glu^31, Lys^34]-maggy urotensin(4-41) [Example 3 E] | stimulates
(cyclo 31-34)[Ac-Pro^4, D-Phe^12, Nle^18,21, Glu^31, Lys^34]-AHC(4-41) [Example 3 A] | strongly stimulates
(cyclo 31-34)[Ac-Pro^4, D-Phe^12, Nle^18,21, Glu^31, Lys^34]-carp urotensin(4-41) [Example 3 F] | stimulates

target: T2, human CRFR1 (Homo sapiens, UniProt P34998); test: Competitive binding assay, CHO cells stably expressing human CRFR1, displacement of 125I-(Nle21,Tyr32) ovine CRF; conditions: not given
T2 construct: expressed in transfected cells
T2 sequence (P34998 24-415): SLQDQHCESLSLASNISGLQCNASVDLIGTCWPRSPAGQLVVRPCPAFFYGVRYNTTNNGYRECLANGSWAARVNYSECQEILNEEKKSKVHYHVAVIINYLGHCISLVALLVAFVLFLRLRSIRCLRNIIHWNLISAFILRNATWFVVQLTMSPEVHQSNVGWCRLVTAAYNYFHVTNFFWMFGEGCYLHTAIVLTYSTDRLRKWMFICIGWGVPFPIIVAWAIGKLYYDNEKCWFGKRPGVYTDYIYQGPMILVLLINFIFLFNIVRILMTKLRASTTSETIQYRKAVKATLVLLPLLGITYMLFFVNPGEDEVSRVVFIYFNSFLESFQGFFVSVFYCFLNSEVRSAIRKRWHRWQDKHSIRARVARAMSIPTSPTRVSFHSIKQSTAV

Substance | binding to CRFR1 (in words)
(cyclo 31-34)[Ac-Pro^4, CML^19, Nle^21,38, Glu^31, Lys^34]-r/hCRF(4-41) [Example 5 B] | binds strongly
(cyclo 31-34)[Ac-Pro^4, D-Phe^12, CML^14,27, Nle^21,38, Glu^31, Lys^34]-r/hCRF(4-41) [Example 6 A] | binds strongly
(cyclo 31-34)[Ac-Pro^4, D-Phe^12, CML^14, Nle^21,38, Glu^31, Lys^34]-r/hCRF(4-41) [Example 5 A] | binds strongly
(cyclo 31-34)[Ac-Pro^4, D-Phe^12, CML^15, Nle^21,38, Glu^31, Lys^34]-r/hCRF(4-41) [Example 5] | binds strongly
(cyclo 31-34)[Ac-Pro^4, D-Phe^12, CML^17, Nle^21,38, Glu^31, Lys^34]-r/hCRF(4-41) [Example 5 E] | binds strongly
(cyclo 31-34)[Ac-Pro^4, D-Phe^12, CML^18,27, Nle^21,38, Glu^31, Lys^34]-r/hCRF(4-41) [Example 6 B] | binds strongly
(cyclo 31-34)[Ac-Pro^4, D-Phe^12, Nle^14,18,24, Glu^31, Lys^34]-flounder urotensin(4-41) [Example 3 G] | binds strongly
(cyclo 31-34)[Ac-Pro^4, D-Phe^12, Nle^14,18,24, Glu^31, Lys^34]-maggy urotensin(4-41) [Example 3 E] | binds strongly
(cyclo 31-34)[Ac-Pro^4, D-Phe^12, Nle^18,21, Glu^31, Lys^34]-AHC(4-41) [Example 3 A] | bind strongly
(cyclo 31-34)[Ac-Pro^4, D-Phe^12, Nle^18,21, Glu^31, Lys^34]-carp urotensin(4-41) [Example 3 F] | binds strongly
